Assay: Effect of alkalinizing agents on the pH of a solution of 0.1 N HCl with a starting pH of 2.0
Format: physicochemical
Description: Various alkalinizing agents were added to a solution of 0.1 N HCl with a starting pH of 2.0 and the pH of the solution was tested at different time points.

Cl.N=C(N)NCCC[C@H](N)C(=O)O [Arginine HCl, L-arginine-HCl]
pH (100 mg in 200 ml, 10 min): 2.20
pH (100 mg in 200 ml, 20 min): 2.20
pH (100 mg in 200 ml, 30 min): 2.20
pH (100 mg in 200 ml, 40 min): 2.20
pH (100 mg in 200 ml, 50 min): 2.20
pH (100 mg in 200 ml, 60 min): 2.20

O=C([O-])[O-].[Mg+2] [Magnesium Carbonate, magnesium carbonate]
pH (80 mg in 200 ml, 0 min): 2.73
pH (80 mg in 200 ml, 1 min): 4.78
pH (80 mg in 200 ml, 2 min): 6.09
pH (80 mg in 200 ml, 3 min): 6.57
pH (80 mg in 200 ml, 4 min): 7.44
pH (80 mg in 200 ml, 5 min): 8.64
pH (80 mg in 200 ml, 6 min): 8.92
pH (80 mg in 200 ml, 7 min): 9.03
pH (80 mg in 200 ml, 8 min): 9.09
pH (80 mg in 200 ml, 9 min): 9.13
pH (80 mg in 200 ml, 10 min): 9.17
pH (80 mg in 200 ml, 20 min): 9.26
pH (80 mg in 200 ml, 30 min): 9.26
pH of the solution (80 mg in 200 ml, 30 minute timecourse): above 9
pH (100 mg in 200 ml, 10 min): 3.05
pH (100 mg in 200 ml, 20 min): 3.05
pH (100 mg in 200 ml, 30 min): 3.05
pH (100 mg in 200 ml, 40 min): 3.05
pH (100 mg in 200 ml, 50 min): 3.05
pH (100 mg in 200 ml, 60 min): 3.05

CNC[C@H](O)[C@@H](O)[C@H](O)[C@H](O)CO [Meglumine, meglumine]
pH (120 mg in 200 ml, 10 min): 2.16
pH (120 mg in 200 ml, 20 min): 2.16
pH (120 mg in 200 ml, 30 min): 2.16
pH (120 mg in 200 ml, 40 min): 2.16
pH (120 mg in 200 ml, 50 min): 2.16
pH (120 mg in 200 ml, 60 min): 2.16

[O]=[Mg] [MgO, magnesium oxide]
pH (40 mg per 320 mL, 0 min): 2.01
pH (40 mg per 320 mL, 1 min): 2.01
pH (40 mg per 320 mL, 2 min): 2.03
pH (40 mg per 320 mL, 3 min): 2.08
pH (40 mg per 320 mL, 4 min): 2.10
pH (40 mg per 320 mL, 5 min): 2.13
pH (40 mg per 320 mL, 6 min): 2.16
pH (40 mg per 320 mL, 7 min): 2.19
pH (40 mg per 320 mL, 8 min): 2.22
pH (40 mg per 320 mL, 9 min): 2.23
pH (40 mg per 320 mL, 10 min): 2.24
pH (40 mg per 320 mL, 20 min): 2.30
pH (40 mg per 320 mL, 30 min): 2.33
pH (40 mg per 320 mL, 40 min): 2.39
pH (40 mg per 320 mL, 50 min): 2.34
pH (40 mg per 320 mL, 60 min): 2.34
pH (80 mg per 320 mL, 0 min): 1.99
pH (80 mg per 320 mL, 1 min): 2.00
pH (80 mg per 320 mL, 2 min): 2.02
pH (80 mg per 320 mL, 3 min): 2.05
pH (80 mg per 320 mL, 4 min): 2.06
pH (80 mg per 320 mL, 5 min): 2.08
pH (80 mg per 320 mL, 6 min): 2.10
pH (80 mg per 320 mL, 7 min): 2.12
pH (80 mg per 320 mL, 8 min): 2.13
pH (80 mg per 320 mL, 9 min): 2.15
pH (80 mg per 320 mL, 10 min): 2.17
pH (80 mg per 320 mL, 20 min): 2.30
pH (80 mg per 320 mL, 30 min): 2.40
pH (80 mg per 320 mL, 40 min): 2.48
pH (80 mg per 320 mL, 50 min): 2.55
pH (80 mg per 320 mL, 60 min): 2.63
pH (80 mg powder/200 ml, 4 min): 6.21
pH (80 mg powder/200 ml, 5 min): 6.67
pH (80 mg powder/200 ml, 6 min): 7.22
pH (80 mg powder/200 ml, 7 min): 7.98
pH (80 mg powder/200 ml, 8 min): 8.42
pH (80 mg powder/200 ml, 9 min): 8.44
pH (80 mg powder/200 ml, 10 min): 10.13
pH (80 mg powder/200 ml, 20 min): 10.13
pH (80 mg powder/200 ml, 30 min): 8.66
pH (80 mg powder/200 ml, 40 min): 10.13
pH (80 mg, Granular/200 ml, 4 min): 2.75
pH (80 mg, Granular/200 ml, 5 min): 3.37
pH (80 mg, Granular/200 ml, 6 min): 5.50
pH (80 mg, Granular/200 ml, 7 min): 6.04
pH (80 mg, Granular/200 ml, 8 min): 6.38
pH (80 mg, Granular/200 ml, 9 min): 6.74
pH (80 mg, Granular/200 ml, 10 min): 7.05
pH (80 mg, Granular/200 ml, 20 min): 7.50
pH (80 mg, Granular/200 ml, 30 min): 9.14
pH (100 mg powder/200 ml, 4 min): 2.37
pH (100 mg powder/200 ml, 5 min): 2.37
pH (100 mg powder/200 ml, 6 min): 3.52
pH (100 mg powder/200 ml, 7 min): 3.52
pH (100 mg powder/200 ml, 8 min): 3.52
pH (100 mg powder/200 ml, 9 min): 3.52
pH (100 mg powder/200 ml, 10 min): 3.52
pH (100 mg powder/200 ml, 20 min): 5.00
pH (100 mg powder/200 ml, 30 min): 6.50
pH (100 mg powder/200 ml, 40 min): 8.09
pH (120 mg powder/200 ml, 4 min): 6.97
pH (120 mg powder/200 ml, 5 min): 8.21
pH (120 mg powder/200 ml, 6 min): 8.21
pH (120 mg powder/200 ml, 7 min): 8.21
pH (120 mg powder/200 ml, 8 min): 8.21
pH (120 mg powder/200 ml, 9 min): 8.21
pH (120 mg powder/200 ml, 10 min): 8.21
pH (120 mg powder/200 ml, 20 min): 8.21
pH (120 mg powder/200 ml, 30 min): 8.21
pH (160 mg per 320 mL, 0 min): 1.99
pH (160 mg per 320 mL, 1 min): 2.05
pH (160 mg per 320 mL, 2 min): 2.14
pH (160 mg per 320 mL, 3 min): 2.24
pH (160 mg per 320 mL, 4 min): 2.35
pH (160 mg per 320 mL, 5 min): 2.47
pH (160 mg per 320 mL, 6 min): 2.60
pH (160 mg per 320 mL, 7 min): 2.71
pH (160 mg per 320 mL, 8 min): 2.83
pH (160 mg per 320 mL, 9 min): 2.95
pH (160 mg per 320 mL, 10 min): 3.07
pH (160 mg per 320 mL, 20 min): 8.16
pH (160 mg per 320 mL, 30 min): 9.30
pH (160 mg per 320 mL, 40 min): 9.54
pH (160 mg per 500 mL, 0 min): 1.98
pH (160 mg per 500 mL, 1 min): 2.00
pH (160 mg per 500 mL, 2 min): 2.02
pH (160 mg per 500 mL, 3 min): 2.05
pH (160 mg per 500 mL, 4 min): 2.07
pH (160 mg per 500 mL, 5 min): 2.12
pH (160 mg per 500 mL, 6 min): 2.15
pH (160 mg per 500 mL, 7 min): 2.18
pH (160 mg per 500 mL, 8 min): 2.22
pH (160 mg per 500 mL, 9 min): 2.24
pH (160 mg per 500 mL, 10 min): 2.27
pH (160 mg per 500 mL, 20 min): 2.54
pH (160 mg per 500 mL, 30 min): 2.62
pH (160 mg per 500 mL, 40 min): 2.74
pH (160 mg per 500 mL, 50 min): 2.86
pH (160 mg per 500 mL, 60 min): 2.96
effect on pH of the solution (80-120 mg/200 ml powder and 80 mg granular/200 ml): rapidly raise the pH of the solution to neutral or higher

CC(=O)[O-].[Na+] [Sodium Acetate, sodium acetate]
pH (200 mg in 200 ml, 10 min): 4.73
pH (200 mg in 200 ml, 20 min): 4.96
pH (200 mg in 200 ml, 30 min): 5.08
pH (200 mg in 200 ml, 40 min): 5.21
pH (200 mg in 200 ml, 50 min): 5.34
pH (200 mg in 200 ml, 60 min): 5.34
